Data: patent US7855290B2, “Pyridine derivatives and pyrimidine derivatives (3)” (Eisai R&D Management Co., Ltd., priority 2005, dated 2010)

What was measured:
HGFR = biological target: T1, HGFR (Homo sapiens, UniProt P08581); assay: Inhibitory activity against the HGFR autophosphorylation using ELISA (MKN-45 cells); type: cell-based; details: 1 hr with test substance
T1 construct: endogenous in cells; host or cells: MKN-45 human gastric cancer cells
In short: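 MKN-45 gastric cancer cells, plated overnight in 1% FBS RPMI1640, treated with compound 1 h at 37° C and lysed. Lysate captured on anti-phosphotyrosine (PY20) plates, probed with anti-HGFR then HRP anti-rabbit IgG; TMB absorbance at 450 nm. Activity expressed as % of untreated extract (100%) versus lysis buffer blank (0%).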

[1] = test system: Human gastric cancer cells (MKN-45); assay: Inhibitory activity against the proliferation of human gastric cancer cells (MKN-45); type: cell-based; details: 72 h, MKN-45, 1% FBS RPMI1640, 3 days, Cell Counting Kit-8
In short: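 MKN-45 cells seeded overnight in RPMI1640 with 1% FBS, then exposed to compound for 3 days at 37° C, 5% CO2. Viability read with CCK-8 after about 1.5 hrs, absorbance at 450 nm (reference 660 nm).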

T1 sequence (P08581 25-1390): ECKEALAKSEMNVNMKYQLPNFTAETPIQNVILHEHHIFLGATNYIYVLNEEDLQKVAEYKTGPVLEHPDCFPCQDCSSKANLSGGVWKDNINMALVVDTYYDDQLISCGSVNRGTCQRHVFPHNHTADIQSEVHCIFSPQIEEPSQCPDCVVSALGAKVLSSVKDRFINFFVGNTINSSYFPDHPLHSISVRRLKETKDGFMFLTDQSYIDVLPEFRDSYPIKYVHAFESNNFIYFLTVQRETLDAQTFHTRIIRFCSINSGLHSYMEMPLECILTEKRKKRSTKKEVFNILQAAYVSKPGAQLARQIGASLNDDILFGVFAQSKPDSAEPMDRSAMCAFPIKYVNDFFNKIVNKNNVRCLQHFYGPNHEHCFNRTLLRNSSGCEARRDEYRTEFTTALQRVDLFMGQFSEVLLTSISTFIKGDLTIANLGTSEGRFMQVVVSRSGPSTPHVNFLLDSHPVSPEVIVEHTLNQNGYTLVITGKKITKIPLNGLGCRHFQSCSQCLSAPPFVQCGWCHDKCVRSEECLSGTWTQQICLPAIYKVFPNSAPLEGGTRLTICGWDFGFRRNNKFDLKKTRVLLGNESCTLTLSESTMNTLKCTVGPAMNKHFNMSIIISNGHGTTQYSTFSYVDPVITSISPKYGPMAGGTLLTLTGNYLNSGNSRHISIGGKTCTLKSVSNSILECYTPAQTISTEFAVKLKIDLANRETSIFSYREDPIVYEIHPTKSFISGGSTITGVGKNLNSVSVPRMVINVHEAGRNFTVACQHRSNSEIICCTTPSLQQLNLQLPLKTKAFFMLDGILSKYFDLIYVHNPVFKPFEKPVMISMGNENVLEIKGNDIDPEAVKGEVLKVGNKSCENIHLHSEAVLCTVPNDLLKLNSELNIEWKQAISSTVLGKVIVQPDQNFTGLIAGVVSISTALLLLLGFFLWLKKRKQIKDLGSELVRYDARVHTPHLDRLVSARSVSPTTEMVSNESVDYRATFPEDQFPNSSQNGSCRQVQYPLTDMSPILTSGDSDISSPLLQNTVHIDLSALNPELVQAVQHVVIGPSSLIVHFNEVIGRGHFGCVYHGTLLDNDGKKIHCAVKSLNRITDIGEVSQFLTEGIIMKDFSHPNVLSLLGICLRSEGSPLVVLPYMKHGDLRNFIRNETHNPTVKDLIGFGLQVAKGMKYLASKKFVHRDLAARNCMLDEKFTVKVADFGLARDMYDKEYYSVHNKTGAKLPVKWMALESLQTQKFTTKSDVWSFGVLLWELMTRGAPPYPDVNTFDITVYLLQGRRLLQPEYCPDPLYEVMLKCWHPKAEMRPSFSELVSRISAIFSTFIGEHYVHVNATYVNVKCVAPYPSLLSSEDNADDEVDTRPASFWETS

SMILES	IC50 (HGFR)	IC50 [1]
CN1CCC(N(C)C(=O)Nc2cc(Oc3ccc(NC(=O)C4(C(=O)Nc5ccc(F)cc5)CC4)cc3)ccn2)CC1 [Example 12]	40 nM	31 nM
CN(C)CCN1CCC(N(C)C(=O)Nc2cc(Oc3ccc(NC(=O)C4(C(=O)Nc5ccc(F)cc5)CC4)c(F)c3)ccn2)CC1 [Example 25, N-(4-{[2-({[{1-[2-(Dimethylamino)ethyl]piperidin-4-yl}(methyl)amino]carbonyl}amino)pyridin-4-yl]oxy}-2-fluorophenyl)-N′-(4-fluorophenyl)cyclopropane-1,1-dicarboxamide]	4.6 nM	19 nM
CN(C)CC1CN(C(=O)Nc2cc(Oc3ccc(NC(=O)C4(C(=O)Nc5ccc(F)cc5)CC4)c(F)c3)ccn2)C1 [Example 77, N-[4-({2-[({3-[(Dimethylamino)methyl]azetidin-1-yl}carbonyl)amino]pyridin-4-yl}oxy)-2-fluorophenyl]-N′-(4-fluorophenyl)cyclopropane-1,1-dicarboxamide]	13 nM	19 nM
CN1CCN(C2CCN(C(=O)Nc3cc(Oc4ccc(NC(=O)C5(C(=O)Nc6ccc(F)cc6)CC5)cc4)ccn3)CC2)CC1 [Example 32, N-(4-Fluorophenyl)-N′-(4-{[2-({[4-(4-methylpiperazin-1-yl)piperidin-1-yl]carbonyl}amino)pyridin-4-yl]oxy}phenyl)cyclopropane-1,1-dicarboxamide]	15 nM	27 nM
O=C(Nc1cc(Oc2ccc(NC(=O)C3(C(=O)Nc4ccc(F)cc4)CC3)cc2F)ncn1)N1CCC(N2CCC2)CC1 [Example 34, N-{4-[(6-{[(4-Azetidin-1-ylpiperidin-1-yl)carbonyl]amino}pyrimidin-4-yl)oxy]-3-fluorophenyl}-N′-(4-fluorophenyl)cyclopropane-1,1-dicarboxamide]	81 nM	190 nM
CN(C)C1CN(C(=O)Nc2cc(Oc3ccc(NC(=O)C4(C(=O)Nc5ccc(F)cc5)CC4)c(F)c3)ccn2)C1 [Example 76, N-(4-{[2-({[3-(Dimethylamino)azetidin-1-yl]carbonyl}amino)pyridin-4-yl]oxy}-2-fluorophenyl)-N′-(4-fluorophenyl)cyclopropane-1,1-dicarboxamide]	30 nM	19 nM
O=C(Nc1cc(Oc2ccc(NC(=O)C3(C(=O)Nc4ccc(F)cc4)CC3)cc2)ccn1)N1CCN(CCN2CCC2)CC1 [Example 28, N-(4-{[2-({[4-(2-Azetidin-1-ylethyl)piperazin-1-yl]carbonyl}amino)pyridin-4-yl]oxy}phenyl)-N′-(4-fluorophenyl)cyclopropane-1,1-dicarboxamide]	43 nM	54 nM
CN(C)[C@@H]1CCN(C(=O)Nc2cc(Oc3ccc(NC(=O)C4(C(=O)Nc5ccccc5)CC4)c(F)c3)ccn2)C1 [Example 59, N-(4-{[2-({[(3R)-3-(Dimethylamino)pyrrolidin-1-yl]carbonyl}amino)pyridin-4-yl]oxy}-2-fluorophenyl)-N′-phenylcyclopropane-1,1-dicarboxamide]	16 nM	44 nM
O=C(Nc1cc(Oc2ccc(NC(=O)C3(C(=O)Nc4ccc(F)cc4)CC3)c(F)c2)ccn1)N1CC(CO)C1 [Example 75]	13 nM	19 nM
CCN(CC)CCCNC(=O)Nc1cc(Oc2ccc(NC(=O)C3(C(=O)Nc4ccc(F)cc4)CC3)c(Cl)c2)ccn1 [Example 43, N-[2-Chloro-4-({2-[({[3-(diethylamino)propyl]amino}carbonyl)amino]pyridin-4-yl}oxy)phenyl]-N′-(4-fluorophenyl)cyclopropane-1,1-dicarboxamide]	330 nM	280 nM

Continued, values first:

IC50 (HGFR)	IC50 [1]	SMILES
10 nM	23 nM	O=C(Nc1cc(Oc2ccc(NC(=O)C3(C(=O)Nc4ccc(F)cc4)CC3)cc2F)ccn1)N1CCC1 [Example 65, N-[4-({2-[(Azetidin-1-ylcarbonyl)amino]pyridin-4-yl}oxy)-3-fluorophenyl]-N′-(4-fluorophenyl)cyclopropane-1,1-dicarboxamide]
13 nM	31 nM	O=C(Nc1cc(Oc2ccc(NC(=O)C3(C(=O)Nc4ccc(F)cc4)CC3)cc2F)ccn1)N1CCCC1 [Example 66, N-(4-Fluorophenyl)-N′-[3-fluoro-4-({2-[(pyrrolidin-1-ylcarbonyl)amino]pyridin-4-yl}oxy)phenyl]cyclopropane-1,1′-dicarboxamide]
15 nM	16 nM	CN1CCN(C2CCN(C(=O)Nc3cc(Oc4cc(F)c(NC(=O)C5(C(=O)Nc6ccc(F)cc6)CC5)cc4F)ncn3)CC2)CC1 [Example 101, N-(2,5-Difluoro-4-{[4-({[4-(4-methylpiperazin-1-yl)piperidin-1-yl]carbonyl}amino)pyrimidin-6-yl]oxy}phenyl)-N′-(4-fluorophenyl)cyclopropane-1,1-dicarboxamide]
6.6 nM	14 nM	O=C(Nc1cc(Oc2ccc(NC(=O)C3(C(=O)Nc4ccc(F)cc4)CC3)c(F)c2)ccn1)N1CCC(CN2CCC2)CC1 [Example 37, N-(4-{[2-({[4-(Azetidin-1-ylmethyl)piperidin-1-yl]carbonyl}amino)pyridin-4-yl]oxy}-2-fluorophenyl)-N′-(4-fluorophenyl)cyclopropane-1,1-dicarboxamide]
10 nM	52 nM	O=C(Nc1cc(Oc2ccc(NC(=O)C3(C(=O)Nc4ccc(F)cc4)CC3)cc2F)ccn1)N1CCOCC1 [Example 67, N-[3-Fluoro-4-({2-[(morpholin-4-ylcarbonyl)amino]pyridin-4-yl}oxy)phenyl]-N′-(4-fluorophenyl)-cyclopropane-1,1-dicarboxamide]
17 nM	36 nM	CN(C)C1CCN(C(=O)Nc2cc(Oc3ccc(NC(=O)C4(C(=O)Nc5ccc(F)cc5)CC4)cc3F)ccn2)CC1 [Example 23, N-(4-{[2-({[4-(Dimethylamino)piperidin-1-yl]carbonyl}amino)pyridin-4-yl]oxy}-3-fluorophenyl)-N′-(4-fluorophenyl)cyclopropane-1,1-dicarboxamide]
36 nM	21 nM	CN(C)CC1CN(C(=O)Nc2cc(Oc3ccc(NC(=O)C4(C(=O)Nc5ccc(F)cc5)CC4)c(F)c3F)ccn2)C1 [Example 107, N-[4-({2-[({3-[(Dimethylamino)methyl]azetidine-1-yl}carbonyl)amino]pyridin-4-yl}oxy)-2,3-difluorophenyl]-N′-(4-fluorophenyl)cyclopropane-1,1-dicarboxamide]
19 nM	15 nM	CN1CCC(N(C)C(=O)Nc2cc(Oc3ccc(NC(=O)C4(C(=O)Nc5ccc(F)cc5)CC4)c(F)c3)ccn2)CC1 [Example 3, N-(2-Fluoro-4-{[2-({[methyl(1-methylpiperidin-4-yl)amino]carbonyl}amino)pyridin-4-yl]oxy}phenyl)-N′-(4-fluorophenyl)cyclopropane-1,1-dicarboxamide]
21 nM	54 nM	O=C(Nc1cc(Oc2ccc(NC(=O)C3(C(=O)Nc4ccc(F)cc4)CC3)c(F)c2)ccn1)N1CCOCC1 [Example 63, N-[2-Fluoro-4-({2-[(morpholin-4-ylcarbonyl)amino]pyridin-4-yl}oxy)phenyl]-N′-(4-fluorophenyl)cyclopropane-1,1-dicarboxamide]
11 nM	26 nM	O=C(Nc1cc(Oc2ccc(NC(=O)C3(C(=O)Nc4ccc(F)cc4)CC3)c(F)c2)ccn1)N1CCC(N2CCC2)CC1 [Example 9, N-{4-[(2-{[(4-Azetidin-1-ylpiperidin-1-yl)carbonyl]amino}pyridin-4-yl)oxy]-2-fluorophenyl}-N′-(4-fluorophenyl)cyclopropane-1,1-dicarboxamide]
9.4 nM	16 nM	CN1CCC(N(C)C(=O)Nc2cc(Oc3cc(F)c(NC(=O)C4(C(=O)Nc5ccc(F)cc5)CC4)cc3F)ncn2)CC1 [Example 100, N-(2,5-Difluoro-4-{[4-({[methyl(1-methylpiperidin-4-yl)amino]carbonyl}amino)pyrimidin-6-yl]oxy}phenyl)-N′-(4-fluorophenyl)cyclopropane-1,1-dicarboxamide]
15 nM	6.8 nM	CN1CCN(C(=O)Nc2cc(Oc3cc(F)c(NC(=O)C4(C(=O)Nc5ccc(F)cc5)CC4)cc3F)ccn2)CC1 [Example 104, N-{2,5-Difluoro-4-[(2-{[(4-methylpiperazin-1-yl)carbonyl]amino}pyridin-4-yl]oxy}phenyl)-N′-(4-fluorophenyl)cyclopropane-1,1-dicarboxamide]
8.4 nM	19 nM	O=C(Nc1cc(Oc2ccc(NC(=O)C3(C(=O)Nc4ccc(F)cc4)CC3)cc2F)ccn1)N1CCC(CN2CCC2)CC1 [Example 26, N-(4-{[2-({[4-(Azetidin-1-ylmethyl)piperidin-1-yl]carbonyl}amino)pyridin-4-yl]oxy}-3-fluorophenyl)-N′-(4-fluorophenyl)cyclopropane-1,1-dicarboxamide]
16 nM	15 nM	COC1CN(C(=O)Nc2cc(Oc3ccc(NC(=O)C4(C(=O)Nc5ccc(F)cc5)CC4)cc3F)ccn2)C1 [Example 79]
